Experimental data taken from PMC12406192, “Sustainable Joullié–Ugi and Continuous Flow Implementation Led to Novel Captopril-Inspired Broad-Spectrum Metallo-β-Lactamase Inhibitors” (Journal of Medicinal Chemistry, 2025).
Converted amounts (≈) assume the structure as drawn.

Legend:
NDM-1 [1] = biological target: T1, NDM-1 (Klebsiella pneumoniae, UniProt C7C422); test: Spectrophotometric direct competition assay, imipenem hydrolysis (reporter substrate); type: biochemical; conditions: for inhibition at 50 µM: read-out: percentage of inhibition NDM-1
T1 construct: made in house; host or cells: E. coli
T1 sequence (C7C422 29-270 limits assumed): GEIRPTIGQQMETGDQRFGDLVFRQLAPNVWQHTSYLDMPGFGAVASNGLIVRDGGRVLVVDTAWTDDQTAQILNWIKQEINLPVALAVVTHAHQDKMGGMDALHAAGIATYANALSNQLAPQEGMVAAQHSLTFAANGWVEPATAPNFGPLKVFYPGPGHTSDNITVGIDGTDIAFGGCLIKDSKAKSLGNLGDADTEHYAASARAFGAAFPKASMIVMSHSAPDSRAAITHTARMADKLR
Description: (§1) IC50 values were determined in a kinetic fluorescence-based in vitro assay as described previously. All compounds were preincubated with the recombinant protein for 30 min before addition of the fluorogenic substrate fluorocillin. , The inhibitory activity was also determined (expressed as the percentage of inhibition in the presence of 50 μM compound) using a spectrophotometric assay in which the hydrolysis of imipenem (the reporter substrate) was monitored (see Section for details).
(§2) The inhibitory activity of the compounds was determined using enzyme assays with recombinant NDM-1, VIM-1, VIM-2, IMP-1, and IMP-7. These enzymes were produced in E. coli and purified as previously described. , The fluorogenic substrate fluorocillin was synthesized according to the procedure described by Rukavishnikov et al. The assays were performed in 96-well format using black polystyrene plates (Corning, Corning, NY) at room temperature, and the measurements were carried out on the Tecan spectrophotometer Infinite F200 PRO (Tecan, Männedorf, Switzerland). The protein stock solutions were diluted in assay buffer (HEPES 50 mM, pH 7.5 containing 0.01%Triton X-100, buffer HX) to reach final concentrations of VIM-1–4 nM, IMP-7–0.1 nM; NDM-1–3 nM. Subsequently, 89 μL of the protein solution was mixed with 1 μL of the inhibitor diluted in DMSO (final DMSO concentration 1% at final assay volume of 100 μL) and incubated for 30 min. […] Negative controls were measured in the absence of enzyme (89 μL of assay buffer), whereas the positive controls were measured in the presence of enzyme and in the absence of inhibitors (1 μL of DMSO). Each measurement was performed in triplicate in three independent experiments. IC50 values were calculated using data obtained from measurements with at least eight different inhibitor concentrations, applying a sigmoidal dose–response (variable slope with four parameters) equation using GraphPad Prism 5 (GraphPad Software, La Jolla, CA) software. […] All assays were performed in at least in triplicate.

IMP-1 = biological target: T2, IMP-1 (Serratia marcescens, UniProt P52699); test: biochemical; conditions: for inhibition at 50 µM: read-out: percentage of inhibition IMP-1
T2 construct: made in house; host or cells: E. coli
T2 sequence (P52699 19-246, looked up, species assumed): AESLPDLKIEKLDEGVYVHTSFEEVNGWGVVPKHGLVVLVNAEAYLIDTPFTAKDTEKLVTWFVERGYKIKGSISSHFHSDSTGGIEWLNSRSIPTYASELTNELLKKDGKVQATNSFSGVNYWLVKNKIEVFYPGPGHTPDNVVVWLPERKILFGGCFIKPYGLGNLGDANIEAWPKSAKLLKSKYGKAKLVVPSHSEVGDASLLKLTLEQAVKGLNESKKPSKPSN
Description: as §1, §2

VIM-2 [2] = biological target: T3, VIM-2 (Escherichia coli, UniProt Q5U7L7); test: biochemical; conditions: read-out: percentage of inhibition VIM-2
T3 construct: made in house; host or cells: E. coli
Description: as §1, §2

[3] = test system: E. coli SI-M001 (bla NDM‑1 +); test: Imipenem MIC, broth microdilution, with fixed concentration of compound; type: cell-based; conditions: for imipenem MIC, E. coli SI-M001 (bla NDM‑1 +): compound at 32 μg/mL, median of three experiments
Description: (§3) In vitro antimicrobial susceptibility testing was performed according to established standards. […]. The strains used in the study were described elsewhere.

[4] = test system: E. coli SI-G001 (bla NDM‑4 +); type: cell-based; conditions: compound at 32 μg/mL; median of three experiments
Description: (§4) In vitro antimicrobial susceptibility testing was performed according to established standards. […] The strains used in the study were described elsewhere.

[5] = test system: E. coli SI–N003 (bla NDM‑7 +); type: cell-based; conditions: compound at 32 μg/mL; median of three experiments
Description: as §4

[6] = test system: A. baumannii AC-54/97 (bla IMP‑2 +); test: Imipenem MIC, broth microdilution, with fixed concentration of compound; type: cell-based; conditions: for imipenem MIC, A. baumannii AC-54/97 (bla IMP‑2 +): compound at 32 μg/mL, median of three experiments
Description: as §4

[7] = test system: K. pneumoniae 7023 (bla VIM‑1 +); test: as above; type: cell-based; conditions: for imipenem MIC, K. pneumoniae 7023 (bla VIM‑1 +): compound at 32 μg/mL, median of three experiments
Description: as §4

[8] = test system: K. pneumoniae VA-416/02 (bla VIM‑4 +); test: as above; type: cell-based; conditions: for imipenem MIC, K. pneumoniae VA-416/02 (bla VIM‑4 +): compound at 32 μg/mL, median of three experiments
Description: as §4

[9] = test system: S. marcescens SI-1591 (bla VIM‑2 +); test: microbe, parasite or virus in culture; type: cell-based; conditions: for imipenem MIC, S. marcescens SI-1591 (bla VIM‑2 +): compound at 32 μg/mL, median of three experiments
Description: as §4

NDM-1 [10] = biological target: T1, NDM-1; test: Kinetic fluorescence-based in vitro assay with fluorocillin substrate (IC50); type: biochemical; conditions: 30 min preincubation
Description: as §1, §2

[11] = biological target: T4, human angiotensin-converting enzyme 1 (ACE-1) (Homo sapiens, UniProt P12821); test: ACE Activity Assay Kit, fluorogenic substrate; type: biochemical; conditions: 50 μM inhibitor
T4 construct: purchased Sigma-Aldrich CS0002
T4 sequence (P12821 30-1306): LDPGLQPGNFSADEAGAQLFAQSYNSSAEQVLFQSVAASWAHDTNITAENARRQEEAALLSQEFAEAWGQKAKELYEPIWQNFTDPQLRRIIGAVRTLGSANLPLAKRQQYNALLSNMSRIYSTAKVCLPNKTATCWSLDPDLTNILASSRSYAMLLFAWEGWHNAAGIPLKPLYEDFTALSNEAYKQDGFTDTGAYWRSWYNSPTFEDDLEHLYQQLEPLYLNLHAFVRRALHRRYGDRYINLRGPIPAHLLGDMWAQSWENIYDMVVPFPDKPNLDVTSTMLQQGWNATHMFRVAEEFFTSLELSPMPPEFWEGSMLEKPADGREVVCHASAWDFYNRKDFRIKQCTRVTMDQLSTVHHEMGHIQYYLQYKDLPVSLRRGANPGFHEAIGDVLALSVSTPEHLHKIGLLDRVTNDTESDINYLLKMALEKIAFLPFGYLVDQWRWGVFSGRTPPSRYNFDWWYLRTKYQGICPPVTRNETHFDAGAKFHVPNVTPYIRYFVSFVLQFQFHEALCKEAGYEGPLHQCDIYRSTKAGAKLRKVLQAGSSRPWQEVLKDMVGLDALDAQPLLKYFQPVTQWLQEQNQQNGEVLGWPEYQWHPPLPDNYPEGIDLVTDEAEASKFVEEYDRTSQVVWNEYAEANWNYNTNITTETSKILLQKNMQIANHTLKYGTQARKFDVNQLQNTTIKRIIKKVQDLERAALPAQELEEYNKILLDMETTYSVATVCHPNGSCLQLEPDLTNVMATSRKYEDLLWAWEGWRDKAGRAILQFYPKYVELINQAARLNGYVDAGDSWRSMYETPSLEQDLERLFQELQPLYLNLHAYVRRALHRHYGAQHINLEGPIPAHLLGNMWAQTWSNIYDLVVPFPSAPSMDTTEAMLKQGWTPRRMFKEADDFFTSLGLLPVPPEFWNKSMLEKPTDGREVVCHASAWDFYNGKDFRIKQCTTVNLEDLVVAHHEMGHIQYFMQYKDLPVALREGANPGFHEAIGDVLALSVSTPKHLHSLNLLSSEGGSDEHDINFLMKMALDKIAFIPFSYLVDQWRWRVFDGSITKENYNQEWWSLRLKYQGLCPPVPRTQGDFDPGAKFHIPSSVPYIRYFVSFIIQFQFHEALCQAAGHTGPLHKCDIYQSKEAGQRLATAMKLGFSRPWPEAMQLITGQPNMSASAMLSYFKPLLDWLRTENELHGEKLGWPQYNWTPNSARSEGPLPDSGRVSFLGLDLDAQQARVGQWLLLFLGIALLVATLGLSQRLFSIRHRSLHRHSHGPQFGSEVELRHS
Description: To assess the selectivity of the compounds, their inhibitory activity on human angiotensin-converting enzyme 1 (ACE-1) was performed using the ACE Activity Assay Kit (Sigma-Aldrich cat. No. CS0002). […] Captopril (racemic mixture, D- and L-stereoisomers) was used as control in these experiments.

VIM-2 [12] = biological target: T3, VIM-2; test: biochemical; conditions: competitive model, imipenem reporter substrate; read-out: K i VIM-2
[13] = test system: K. pneumoniae T2301 (bla NDM‑1 +); test: Imipenem MIC, broth microdilution, with fixed concentration of compound; type: cell-based; conditions: Klebsiella pneumoniae; imipenem alone (compound: None)
Description: as §3

[14] = test system: K. pneumoniae T2216 (bla VIM‑1 +); test: as above; type: cell-based; conditions: Klebsiella pneumoniae, read-out: imipenem MIC, K. pneumoniae T2216 (bla VIM‑1 +)
Description: as §4

[15] = test system: P. aeruginosa T2325 (bla IMP‑1 +); test: as above; type: cell-based; conditions: Pseudomonas aeruginosa, read-out: imipenem MIC, P. aeruginosa T2325 (bla IMP‑1 +)
Description: as §4

SMILES | inhibition at 50 µM (NDM-1 [1]) [%] | inhibition at 50 µM (IMP-1) [%] | inhibition at 50 µM (VIM-2 [2]) [%] | imipenem MIC, E. coli SI-M001 (bla NDM‑1 +) [3] [µg/mL] | imipenem MIC, E. coli SI-G001 (bla NDM‑4 +) [4] [µg/mL] | imipenem MIC, E. coli SI–N003 (bla NDM‑7 +) [5] [µg/mL] | imipenem MIC, A. baumannii AC-54/97 (bla IMP‑2 +) [6] [µg/mL] | imipenem MIC, K. pneumoniae 7023 (bla VIM‑1 +) [7] [µg/mL] | imipenem MIC, K. pneumoniae VA-416/02 (bla VIM‑4 +) [8] [µg/mL] | imipenem MIC, S. marcescens SI-1591 (bla VIM‑2 +) [9] [µg/mL] | IC50 (NDM-1 [10]) [µM] | other results
CC(=O)SC[C@@H](C)C(=O)N1c2ccccc2C2(CCCCC2)[C@H]1C(N)=O [(S,S′)-14c, ((S)-3-((S)-2′-Carbamoylspiro[cyclohexane-1,3′-indolin]-1′-yl)-2-methyl-3-oxopropyl)ethanethioate] | ≤ 10 | ≤ 10 | 17 | 16 | 32 | 32 | 128 | 64 | 128 | 8 | – | –
CCC1(CC)c2ccccc2N(C(=O)[C@H](C)CS)[C@H]1C(=O)NCC(=O)O [7d, ((R)-3,3-Diethyl-1-((S)-3-mercapto-2-methylpropanoyl)indoline-2-carbonyl)glycine] | 67 | 17 | 69 | 64 | 64 | 64 | 128 | 128 | 128 | 16 | 10 | –
CCC1(CC)c2ccccc2N(C(=O)[C@H](C)CS)[C@@H]1C(=O)NCC(=O)O [7c, ((S)-3,3-Diethyl-1-((S)-3-mercapto-2-methylpropanoyl)indoline-2-carbonyl)glycine] | 43 | 27 | 55 | 64 | 64 | 64 | 128 | 128 | 128 | 16 | 41 | –
CCC1(CC)c2ccccc2N(C(=O)[C@H](C)CSC(C)=O)[C@H]1C(N)=O [(S,R′)-14b, ((S)-3-((R)-2-Carbamoyl-3,3-diethylindolin-1-yl)-2-methyl-3-oxopropyl)ethanethioate] | ≤ 10 | ≤ 10 | 15 | 32 | 64 | 64 | 128 | 64 | 128 | 8 | – | –
C[C@H](CS)C(=O)N1c2ccccc2C(C)(C)[C@H]1C(=O)NCC(=O)O [7a, ((S)-1-((S)-3-Mercapto-2-methylpropanoyl)-3,3-dimethylindoline-2-carbonyl)glycine] | 28 | ≤ 10 | 38 | 64 | 64 | 64 | 128 | 128 | 128 | 8 | 40 | –
CCC1(CC)c2ccccc2N(C(=O)[C@H](C)CS)[C@@H]1C(N)=O [6c, (S)-3,3-Diethyl-1-((S)-3-mercapto-2-methylpropanoyl)indoline-2-carboxamide] | 81 | 66 | 96 | 64 | 64 | 64 | 128 | 128 | 128 | 8 | 8.4 | Ki (NDM-1 [1]; competitive model, imipenem reporter substrate, read-out: K i NDM-1): 4.5 ± 0.7 µM; Ki (IMP-1; competitive model, imipenem reporter substrate, read-out: K i IMP-1): 4.9 ± 0.3 µM; inhibition at 50 µM [11]: < 5%; Ki (VIM-2 [12]): 0.16 ± 0.01 µM
C[C@H](CS)C(=O)N1CCC[C@H]1C(=O)O [L-captopril, reference compound] | 76 | – | – | – | – | – | – | – | – | – | – | –
C[C@@H](O)[C@H]1C(=O)N2C(C(=O)O)=C(SCCN=CN)C[C@H]12 [imipenem, reference compound] | – | – | – | – | – | – | – | – | – | – | – | MIC ([3]; Escherichia coli, imipenem alone (compound: None)): 64 µg/mL (≈ 214 µM); MIC [13]: 16 µg/mL (≈ 53.4 µM); MIC ([6]; Acinetobacter baumannii, read-out: imipenem MIC, A. baumannii AC-54/97 (bla IMP‑2 +)): 128 µg/mL (≈ 428 µM); MIC ([7]; Klebsiella pneumoniae, read-out: imipenem MIC, K. pneumoniae 7023 (bla VIM‑1 +)): 128 µg/mL (≈ 428 µM); MIC [14]: 4 µg/mL (≈ 13.4 µM); MIC ([8]; Klebsiella pneumoniae, read-out: imipenem MIC, K. pneumoniae VA-416/02 (bla VIM‑4 +)): 128 µg/mL (≈ 428 µM); MIC [15]: 64 µg/mL (≈ 214 µM); MIC ([9]; Serratia marcescens, read-out: imipenem MIC, S. marcescens SI-1591 (bla VIM‑2 +)): 16 µg/mL (≈ 53.4 µM)
C[C@H](CS)C(=O)N1CCC[C@@H]1C(=O)O [D-captopril, reference compound] | 86 | – | – | – | – | – | – | – | – | – | – | –
